# Reference: patent publication US6410544B1, “Cholinergic agents in the treatment of presbyopia” (Allergan Sales, Inc., priority 1998, dated 2002)
# Entries after “also recorded” stand apart in the source; their conditions may differ.
# Legend:
# [1] = system: eye of a human adult with presbyopia; assay: Eye drop formulation given to a human adult with presbyopia; format: in vivo; conditions: 0.1% weight/volume in base solution pH 6.4, human adult with presbyopia
# Method: In a specific example of this invention, a base solution can be formulated as follows: Sodium Chloride 0.3%; Edetate Disodium 0.1%; Boric Acid 1.0%; Benzaliconium Chloride 0.01% Sodium Hydroxide (adjust to pH 6.4) and Water. Pilocarpine, at a concentration of 0.1% weight/volume, is added to the base solution. The above formulation is administered to the eye of a human adult with presbyopia, shown by their discomfort when reading, or their inability to read fine print.
# [2] = system: eye of a presbyopic myope; assay: Hartinger refractometry at distance and near after one topical drop, myopic presbyope; format: in vivo, human; conditions: single measurements, time point printed '30 min, 3:45 pm'
# [3] = system: eye of a presbyopic myope; assay: as above; format: in vivo, human; conditions: for Mean Refraction, Near OS: +1.50 sphere in the right eye for near fixation; for Mean Refraction, Near OD: +1.75 sphere in the left eye for near fixation
# Method: (§1) This clinical study was designed to evaluate the effect of a low dose muscarinic agent such as Pilocarpine from 0.001% to less than 2% by weight values on the refractive status of the eye.
# (§2) One drop of Pilocarpine 0.3% was administered topically to the eye of a presbyopic myope and hyperope, before and after Hartinger Refractometry at distance and near was performed by the same observer.
# (§3) Refraction at distance and near was performed with the Hartinger Refractomer by the same observer prior to installation of Pilcarpine 0.3%. Three measurements were taken at distance and at near for each eye tested at each timepoint.
# (§4) In the myopic presbyope, both eyes received Piolcarpine 0.3%. In the hyperopic presbyope, only the right eye received Pilocarpine 0.3%.
# (§5) At approximately 30-50 and 60-90 minutes post installation of Pilocarpine, refraction measurements were repeated.
# pupil size = assay: Observation of pupil size in the refractometry study; format: in vivo, human; conditions: after one topical drop, myopic and hyperopic presbyope
# [4] = system: eye of a presbyopic hyperope; assay: Hartinger refractometry at distance and near after one topical drop, hyperopic presbyope; format: in vivo, human
# Method: as §1, §2, §3, §4, §5
smiles,measurement,setting,value
"CC[C@@H]1C(=O)OC[C@@H]1Cc1cncn1C [Pilocarpine 0.3%, Pilocarpine]",vision after administration of the eye drops,[1],Vision is improved
same,"Refraction, Distance OS",[2],−1.25 diopters
same,"Refraction, Near OD",[2],−1.5 diopters
same,change in distance and near myopic correction,[3]; 30 and 60 minutes post dosing,small but definite decrease in the distance and near myopic correction which was greater at 60 than 30 minutes post dosing
same,"Mean Refraction, Distance OD",[3]; 30 min post instillation,−1.06 diopters
same,"Mean Refraction, Near OS",[3]; 30 min post instillation,−1.53 diopters
same,"Mean Refraction, Near OD",[3]; 30 min post instillation,−1.8 diopters
same,"Mean Refraction, Distance OD",[3]; 60 min post instillation,−1.05 diopters
same,"Mean Refraction, Distance OS",[3]; 60 min post instillation,−1.25 diopters
same,"Mean Refraction, Near OS",[3]; 60 min post instillation,−0.95 diopters
same,"Mean Refraction, Near OD",[3]; 60 min post instillation,−1.5 diopters
same,change in pupil size,pupil size,no notable change in pupil size; also recorded: no observable effect on pupil size
same,"Mean Refraction, Distance OD",[4]; 50 min post instillation,+1.15 diopters
same,"Mean Refraction, Near OD","[4]; 50 min post instillation, +2.5 sphere in the left eye for near fixation",+0.17 diopters
same,"Mean Refraction, Distance OD",[4]; 90 min post instillation,+0.42 diopters
same,"Mean Refraction, Near OD","[4]; 90 min post instillation, +2.50 sphere in the left eye for near fixation",+0.38 diopters
same,change in distance and near hyperopic correction,[4]; 90 minutes post dosing,small but definite decrease in the distance and near hyperopic correction
